# In patent US20230340530A1, “Methods of Protecting RNA” (Pfizer Inc., priority 2020, published 2023):
# Target: RNA samples (Chi18 or HCV IRES)
# Assay: Droplet Digital Polymerase Chain Reaction (ddPCR) assay of RNA protection
# Assay type: biochemical
# Settings: 50 mM Tris buffer pH 11.4, 16 hrs at 30° C. for Chi18 or 42° C. for HCV; table does not say which RNA; 600 µM to 0.018 µM compound, 2% DMSO; read-out: EC50 Values Obtained from the ddPCR Assay
# Experimental: The ddPCR assays measured RNA integrity by converting intact RNA to cDNA by reverse transcription, then performing digital PCR in thousands of nanoliter-sized droplets for each sample. PCR was performed within each droplet, which allowed for more sensitive detection of subtle changes in RNA concentration compared to traditional PCR or qPCR. Additionally, primers/probes specific to the 5′ end of the RNA/cDNA transcript(s) were used to assess fragment integrity, i.e. degraded RNA had fewer 5′ positive droplets. The BioRad QX200 Droplet Digital PCR System was used for the ddPCR workflow.
# RNA samples (Chi18 or HCV IRES) were diluted to 100 fg/µL in 50 mM Tris buffer pH 11.4. Boron compounds were tested in a dose-response format to determine EC50. A compound dilution plate that contained a 30 mM top concentration of compound in DMSO was serially (half-log) diluted 10 times. A quantity of 0.12 µL of this compound dilution plate was spotted into a 96-well PCR plate (Thermo). Sample RNAs were added (6 µL) and incubated with test compounds as described below. Final compound concentrations ranged from 600 µM to 0.018 µM in 2% DMSO.
# For the degradation reaction, treated RNAs were incubated for 16 hrs at 30° C. for Chi18 samples or 42° C. for HCV samples. Upon completion of the degradation reaction, cDNA was made and ddPCR run for each sample (96 well plates). Positive 5′ droplet values were divided by the total accepted droplet values for each sample and a ratio value generated for each sample.
# Data was imported into a database where percent (%) protection and compound EC50 were calculated and curated. […] EC50 was determined by using a four parameter logistic equation: Y=A+((B-A)/(1+(C/X)D)); where Y is percent protection, X is compound concentration, A and B are minimum and maximum asymptotes, respectively, C is EC50, and D is Hill slope.
row,EC50 [µM],Structure (SMILES)
1,137,"CN(C)Cc1ccc(B(Oc2cccc3cccnc23)c2cccc(C#N)c2)cc1Cl [PF-06956816, quinolin-8-yl {3-chloro-4-[(dimethylamino)methyl]phenyl}(3-cyanophenyl)borinate]"
2,253,"CN1CCN(Cc2cccc(B(Oc3cccc4cccnc34)c3ccc(C#N)cc3)c2)CC1 [PF-06957315, quinolin-8-yl (4-cyanophenyl){3-[(4-methylpiperazin-1-yl)methyl]phenyl}borinate]"
3,226,"O=C(O)C[C@@H]1OB(O)c2cccc(B(O)O)c21 [PF-06961361, [(3S)-4-borono-1-hydroxy-1,3-dihydro-2,1-benzoxaborol-3-yl]acetic acid]"
4,242,"CN1CCN(Cc2ccc(B(Oc3cccc4cccnc34)c3ccc(C#N)c(Cl)c3)cc2)CC1 [PF-06956831, quinolin-8-yl (3-chloro-4-cyanophenyl){4-[(4-methylpiperazin-1-yl)methyl]phenyl}borinate]"
5,429,"O=C(OCc1cccc(B2OCc3cc(F)ccc32)c1)c1ccc2cccc(O)c2n1 [PF-06957137, [3-(5-fluoro-2,1-benzoxaborol-1 (3H)-yl)phenyl]methyl 8-hydroxyquinoline-2-carboxylate]"
6,266,"O=C(Nc1ccc2c(c1)B(O)OC2)c1ccccc1 [PF-06957640, N-(1-hydroxy-1,3-dihydro-2,1-benzoxaborol-6-yl)benzamide]"
7,175,"CN1CCN(Cc2ccc(B(Oc3cccc4cccnc34)c3ccc(C#N)c(Cl)c3)cc2F)CC1 [PF-06956823, quinolin-8-yl (3-chloro-4-cyanophenyl){3-fluoro-4-[(4-methylpiperazin-1-yl)methyl]phenyl}borinate]"
8,234,"C[C@H]1c2ccc(NC(=O)CNc3ccc4c(c3)B(O)OC4(C)C)c(O)c2C(=O)C2=C(O)[C@]3(O)C(=O)C(C(N)=O)=C(O)[C@@H](N(C)C)[C@@H]3[C@@H](O)[C@@H]21 [PF-06968306, (4S,4aR,5S,5aR,6R,12aS)-4-(dimethylamino)-3,5,10,12,12a-pentahydroxy-9-{[N-(1-hydroxy-3,3-dimethyl-1,3-dihydro-2,1-benzoxaborol-6-yl)glycyl]amino}-6-methyl-1,11-dioxo-1,4,4a,5,5a,6,11,12a-octahydrotet racene-2-carboxamide]"
9,207,"CN1CCN(Cc2ccc([B@@-]3(c4ccc(C#N)cc4)Oc4cccc5ccc[n+]3c45)cc2Cl)CC1 [PF-06956838, {3-chloro-4-[(4-methylpiperazin-1-yl)methyl]phenyl}(4-cyanophenyl)(quinolin-8-olato-kappa-2-N,O)boron]"
10,281,"C[C@H]1c2c(NC(=O)c3ccc4c(c3)B(O)OC4)ccc(O)c2C(=O)C2=C(O)[C@]3(O)C(=O)C(C(N)=O)=C(O)[C@@H](N(C)C)[C@@H]3[C@@H](O)[C@@H]21 [PF-06968384, N-[(6aS,10S,10aR,11S,11aR, 12R)-8-carbamoyl-10-(dimethylamino)-4,6,6a,9,11-pentahydroxy-12-methyl-5,7-dioxo-5,6a,7,10,10a,11,11a,12-octahydrotetracen-1-yl]-1-hydroxy-1,3-dihydro-2,1-benzoxaborole-6-car boxamide]"
11,166,"C[C@H]1c2ccc(NCCC(=O)Nc3ccc4c(c3)B(O)OCC4)c(O)c2C(=O)C2=C(O)[C@]3(O)C(=O)C(C(N)=O)=C(O)[C@@H](N(C)C)[C@@H]3[C@@H](O)[C@@H]21 [PF-06968237, (4S,4aR,5S,5aR,6R,12aS)-4-(dimethylamino)-3,5,10,12,12a-pentahydroxy-9-({3-[(1-hydroxy-3,4-dihydro-1H-2,1-benzoxaborinin-7-yl)amino]-3-oxopropyl}amino)-6-methyl-1,11-dioxo-1,4,4a,5,5a,6,11,12a-octahyd rotetracene-2-carboxamide]"
12,126,"C[C@H]1c2ccc(NCCC(=O)Nc3cc4c5c(c3)OCCOB5OC4)c(O)c2C(=O)C2=C(O)[C@]3(O)C(=O)C(C(N)=O)=C(O)[C@@H](N(C)C)[C@@H]3[C@@H](O)[C@@H]21 [PF-06968542, (4S,4aR,5S,5aR,6R,12aS)-9-({3-[(2,3-dihydro-7H-[1,2]oxaborolo[4,3,2-jk][2,5,1]benzodioxaborepin-9-yl)amino]-3-oxopropyl}amino)-4-(dimethylamino)-3,5,10,12,12a-pentahydroxy-6-methyl-1,11-dioxo-1,4,4a,5,5a,6,11,12a-octahydrotetracene-2-carboxamide]"
13,140,"CN1CCN(Cc2cccc([B@@-]3(c4ccc(F)cc4)Oc4cccc5ccc[n+]3c45)c2)CC1 [PF-06956810, (4-fluorophenyl){3-[(4-methylpiperazin-1-yl)methyl]phenyl}(quinolin-8-olato-kappa-2-N,O)boron]"
14,488,"BBBBBBBBBB1C(Cc2ccc(O)cc2)=C1Cc1ccc(O)cc1 [PF-01914444, 4,4′-{[1-(nonaboran-1-yl)-1H-borirene-2,3-diyl]bis(methylene)}diphenol]"
15,114,"Cc1cc(Oc2ccnc(NCCN)n2)cc2c1C(CC(=O)O)OB2O (stereo not drawn) [PF-06959336, 2-(6-((2-((2-aminoethyl)amino)pyrimidin-4-yl)oxy)-1-hydroxy-4-methyl-1,3-dihydrobenzo[c][1,2]oxabor ol-3-yl)acetic acid]"
16,55.6,"CN(C)c1cc(NC(=O)c2ccc3c(c2)B(O)OC3(C)C)c(O)c2c1C[C@H]1C[C@H]3[C@H](N(C)C)C(O)=C(C(N)=O)C(=O)[C@@]3(O)C(O)=C1C2=O [PF-06967791, N-[(5aR,6aS,7S,1 OaS)-9-carbamoyl-4,7-bis(dimethylamino)-1,8,10a,11-tetrahydroxy-10,12-dioxo-5,5a,6,6a,7,10,10a,12-octahydrotetracen-2-yl]-1-hydroxy-3,3-dimethyl-1,3-dihydro-2,1-benzoxaborole-6-carboxamide]"
17,75.1,"C[C@H]1c2ccc(NCC(=O)Nc3ccc4c(c3)B(O)OC4)c(O)c2C(=O)C2=C(O)[C@]3(O)C(=O)C(C(N)=O)=C(O)[C@@H](N(C)C)[C@@H]3[C@@H](O)[C@@H]21 [PF-06968419, (4S,4aR,5S,5aR,6R,12aS)-4-(dimethylamino)-3,5,10,12,12a-pentahydroxy-9-({2-[(1-hydroxy-1,3-dihydro-2,1-benzoxaborol-6-yl)amino]-2-oxoethyl}amino)-6-methyl-1,11-dioxo-1,4,4a,5,5a,6,11,12a-octahydrotetr acene-2-carboxamide]"
18,214,"COC(=O)c1cc(B2OC(C)(C)C(C)(C)O2)cc(C(=O)OC)n1 [PHA-00804319, dimethyl 4-(4,4,5,5-tetramethyl-1,3,2-dioxaborolan-2-yl)pyridine-2,6-dicarboxylate]"
19,463,"Cc1cc(C(=O)O)ccc1B1OC(C)(C)C(C)(C)O1 [PF-05417781, 3-methyl-4-(4,4,5,5-tetramethyl-1,3,2-dioxaborolan-2-yl)benzoic acid]"
20,355,"OB(c1ccc(Cl)cc1)c1ccc(Cl)cc1 [PF-05690484, bis(4-chlorophenyl)borinic acid]"
21,388,"Cc1cc(CNc2nc(N3CCC[C@@H](c4ccccc4C)C3)nc3[nH]ccc23)on1 [PF-00838447, N-[(3-methyl-1,2-oxazol-5-yl)methyl]-2-[(3S)-3-(2-methylphenyl)piperidin-1-yl]-7H-pyrrolo[2,3-d]pyrimidin-4-amine]"
22,300,"CC1(C)COC(c2cccc(B(Oc3cccc4cccnc34)c3cccc(F)c3)c2)=N1 [PF-06956596, quinolin-8-yl [3-(4,4-dimethyl-4,5-dihydro-1,3-oxazol-2-yl)phenyl](3-fluorophenyl)borinate]"
23,306,"C=C(CN(C)Cc1ccccc1)[B-](F)(F)F [PF-06840997, {3-[benzyl(methyl)amino]prop-1-en-2-yl}(trifluorido)borate(1-)]"
24,474,"Clc1cc2c(cc1Cl)OB(c1ccc(Br)cc1)O2 [PF-04009301, 2-(4-bromophenyl)-5,6-dichloro-2H-1,3,2-benzodioxaborole]"
25,400,"CN(C)/C(O)=C/C1=[O+][B-](F)(F)OC=C1c1ccccc1 [PF-03696713, [(1Z)-1-(dimethylamino)-1-hydroxy-5-(hydroxy-kappaO)-4-phenylpenta-1,4-dien-3-onato-kappaO](difluorido)boron]"

row,Structure (SMILES),EC50 [µM]
1,"CC(C)(C)OC(=O)NCCC[B-](F)(F)F [PF-06934734, {3-[(tert-butoxycarbonyl)amino]propyl}(trifluorido)borate(1-)]",302
2,"Cc1cccnc1N(C(=O)c1ccc([B-](F)(F)F)cc1)[C@@H]1CCCN(C(=O)OC(C)(C)C)C1 [PF-06875313, (4-{[(3R)-1-(tert-butoxycarbonyl)piperidin-3-yl](3-methylpyridin-2-yl)carbamoyl}phenyl)(trifluor ido)borate(1-)]",360
